The source of these data is PubChem BioAssay AID206 (DTP/NCI, 2004).

The test system of this test is nude mice, HT29 intrarenal xenograft, tumor weight T/C. Kind of test: NCI In Vivo Anticancer Drug Screen. Data for tumor model HT29;CX-1 Human Adenocarcinoma (MER+) (intrarenal inoculation) in NU/NU Swiss (nude) mice. Particulars: endpoint: mean tumor weight change, higher = larger tumour. The essentials:
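Readout: treated/vehicle-control ratio of the measured endpoint (tumor size or survival) in transplanted-tumor mice.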

[1] abbreviates: dose: 100.0 mg/kg/injection, schedule: Q01DX010 (sc), vehicle: saline with Tween-80.
Where [2] appears, read: dose: 75.0 mg/kg/injection, schedule: Q04DX004 (sc), vehicle: saline with Tween-80.
The mark [3] stands for this setting: dose: 300.0 mg/kg/injection, schedule: Q04DX004 (sc), vehicle: suspension in saline.
Where [4] appears, read: dose: 600.0 mg/kg/injection, schedule: Q04DX004 (sc), vehicle: suspension in saline.
The mark [5] stands for this setting: dose: 1200.0 mg/kg/injection, schedule: Q04DX004 (sc), vehicle: suspension in saline.

Structures are written as SMILES. Values joined by “and” are separate entries in the source; they are usually repeats but may differ in a detail not shown here. Identical values can stand only once. Records with an inconclusive call do not appear.

Turning to `CC(=O)O[C@@H]1[C@@H](O)C2=C3[C@]4(C)[C@@H]1C(C)(C)C(=O)C[C@@H]4[C@]3(O)[C@H](OC(C)=O)[C@@]1(C[C@@H]1C)C2=O`, the T/C runs as follows: (dose: 12.5 mg/kg/injection, schedule: Q01DX010 (sc), vehicle: saline with Tween-80) 77 % of control; (dose: 25.0 mg/kg/injection, schedule: Q01DX010 (sc), vehicle: saline with Tween-80) 122 % of control; (dose: 50.0 mg/kg/injection, schedule: Q01DX010 (sc), vehicle: saline with Tween-80) 26 % of control; under setting [1], 68 % of control.
As for `C[Si](C)(CCl)N[Si](C)(C)CCl`, the T/C is, setting by setting: under setting [2], 91 % of control; (dose: 150.0 mg/kg/injection, schedule: Q04DX004 (sc), vehicle: saline with Tween-80) 84 % of control; (dose: 300.0 mg/kg/injection, schedule: Q04DX004 (sc), vehicle: saline with Tween-80) 101 % of control; (dose: 600.0 mg/kg/injection, schedule: Q04DX004 (sc), vehicle: saline with Tween-80) 78 % of control.
Turning to `N#CC(=C1SCS1)[N+](=O)[O-]`, the T/C by setting is: (dose: 12.0 mg/kg/injection, schedule: Q04DX004 (sc), vehicle: saline) 22 % of control; (dose: 24.0 mg/kg/injection, schedule: Q04DX004 (sc), vehicle: saline) 154 % of control; (dose: 48.0 mg/kg/injection, schedule: Q04DX004 (sc), vehicle: saline) 32 % of control; (dose: 96.0 mg/kg/injection, schedule: Q04DX004 (sc), vehicle: saline) 45 % of control.
Consider `COCC(O)Cn1ccnc1[N+](=O)[O-]` (stereo not drawn), for which the T/C is 86 % of control under setting [3], 80 % of control under setting [4] and 75 % of control under setting [5].
As for `Cc1ccc(NCC2(/N=C/c3ccccc3)OC(CO)C(O)C2O)cc1` (stereo not drawn), the T/C (dose: 200.0 mg/kg/injection, schedule: Q04DX004 (sc), vehicle: Klucel (hydroxypropylcellulose) (HPC)) is 81 % of control; the T/C (dose: 400.0 mg/kg/injection, schedule: Q04DX004 (sc), vehicle: Klucel (hydroxypropylcellulose) (HPC)) is 70 % of control; the T/C (dose: 800.0 mg/kg/injection, schedule: Q04DX004 (sc), vehicle: Klucel (hydroxypropylcellulose) (HPC)) is 92 % of control; the T/C (dose: 1600.0 mg/kg/injection, schedule: Q04DX004 (sc), vehicle: Klucel (hydroxypropylcellulose) (HPC)) is 94 % of control.
`CCCCCCCCCCCC(=O)NC1CC(O[C@H]2C[C@](O)(C(=O)CO)Cc3c(O)c4c(c(O)c32)C(=O)c2c(OC)cccc2C4=O)OC(C)C1O` (stereo partly drawn): the T/C was 105 % of control (dose: 100.0 mg/kg/injection, schedule: Q01DX010 (sc), vehicle: water); 68 % of control (dose: 200.0 mg/kg/injection, schedule: Q01DX010 (sc), vehicle: water); 26 % of control (dose: 400.0 mg/kg/injection, schedule: Q01DX010 (sc), vehicle: water).
`COC12C(COC(N)=O)C3=C(C(=O)C(C)=C(N)C3=O)N1CC1C2N1C` (stereo not drawn): the T/C runs as follows: (dose: 2.0 mg/kg/injection, schedule: Q01DX010 (sc), vehicle: saline) 114 % of control; (dose: 4.0 mg/kg/injection, schedule: Q01DX010 (sc), vehicle: saline) 8 % of control and 12 % of control.
On to `O=S(=O)(c1ccccc1)N1CN2CCN(C2)C1`, for which the T/C by setting is: (dose: 225.0 mg/kg/injection, schedule: Q04DX004 (sc), vehicle: saline with Tween-80) 58 % of control; (dose: 450.0 mg/kg/injection, schedule: Q04DX004 (sc), vehicle: saline with Tween-80) 75 % of control; (dose: 900.0 mg/kg/injection, schedule: Q04DX004 (sc), vehicle: saline with Tween-80) 90 % of control.
Turning to `CNc1nc2c(N)ncnc2n1C1OC(CO)C(O)C1O` (stereo not drawn), the T/C (dose: 25.0 mg/kg/injection, schedule: Q04DX004 (sc), vehicle: saline) was 87 % of control.
Regarding `CN(C)[C@@H]1C(=O)C(C(N)=O)=C(O)[C@@]2(O)C(=O)C3=C(O)c4c(O)ccc(Cl)c4[C@@](C)(O)[C@H]3C[C@@H]12`, the T/C runs as follows: (dose: 200.0 mg/kg/injection, schedule: Q04DX004 (sc), vehicle: saline) 62 % of control; (dose: 400.0 mg/kg/injection, schedule: Q04DX004 (sc), vehicle: saline) 87 % of control; (dose: 800.0 mg/kg/injection, schedule: Q04DX004 (sc), vehicle: saline) 82 % of control; (dose: 1600.0 mg/kg/injection, schedule: Q04DX004 (sc), vehicle: saline) 66 % of control.
Regarding `Nc1nc2ccc(NCc3ccc(C(=O)NC(CCC(=O)O)C(=O)O)cc3)cc2c(=O)[nH]1` (stereo not drawn), the T/C (dose: 50.0 mg/kg/injection, schedule: Q04DX004 (sc), vehicle: saline with Tween-80) is 36 % of control; the T/C (dose: 100.0 mg/kg/injection, schedule: Q04DX004 (sc), vehicle: saline with Tween-80) is 46 % of control and 50 % of control; the T/C (dose: 200.0 mg/kg/injection, schedule: Q04DX004 (sc), vehicle: saline with Tween-80) was 16 % of control and 29 % of control.
On to `CC(=O)OCC1OC(n2ccc(N)nc2=O)C(OC(C)=O)C1OC(C)=O` (stereo not drawn), for which the T/C under setting [3] was 43 % of control; the T/C under setting [4] is 50 % of control; the T/C under setting [5] is 43 % of control; the T/C (dose: 2400.0 mg/kg/injection, schedule: Q04DX004 (sc), vehicle: suspension in saline) is 24 % of control.
As to `O=C(O)C(CSC(c1ccccc1)(c1ccccc1)c1ccccc1)N=Cc1cccs1` (stereo not drawn), the T/C (dose: 200.0 mg/kg/injection, schedule: Q04DX004 (sc), vehicle: suspension in saline) was 12 % of control.
Consider `COC1N(C2CC(O)C(CO)O2)C(=O)NC(=O)C1(F)Br` (stereo not drawn), for which, where the note is “dose: 25.0 mg/kg/injection, schedule: Q01DX010 (sc), vehicle: saline”, the T/C was 28 % of control.
In the case of `CCC1CCCCN1C(=S)N/N=C(\C)c1ccccn1` (stereo not drawn), the T/C by setting is: (dose: 37.5 mg/kg/injection, schedule: Q04DX004 (sc), vehicle: saline with Tween-80) 59 % of control; under setting [2], 26 % of control.
As for `Cc1ccccc1SSc1ccccc1C`, the T/C under setting [1] is 62 % of control and the T/C (dose: 200.0 mg/kg/injection, schedule: Q01DX010 (sc), vehicle: saline with Tween-80) is 68 % of control.
On to `C[C@]12CC[C@@H]3c4ccc(O)cc4CC[C@H]3[C@@H]1CC[C@@H]2O`, for which the T/C (dose: 300.0 mg/kg/injection, schedule: Q04DX004 (sc), vehicle: Klucel (hydroxypropylcellulose) (HPC)) was 54 % of control and the T/C (dose: 600.0 mg/kg/injection, schedule: Q04DX004 (sc), vehicle: Klucel (hydroxypropylcellulose) (HPC)) is 75 % of control.
As for `CC[C@](O)(C(=O)O)c1cc2n(c(=O)c1CO)Cc1cc3ccccc3nc1-2`, the T/C runs as follows: (dose: 31.25 mg/kg/injection, schedule: Q04DX004 (sc), vehicle: saline) 7 % of control; (dose: 62.5 mg/kg/injection, schedule: Q04DX004 (sc), vehicle: saline) -10 % of control; (dose: 125.0 mg/kg/injection, schedule: Q04DX004 (sc), vehicle: saline) -46 % of control.
On to `[Cl][Sn]([c]1ccccc1)[c]1ccccc1`, for which the T/C runs as follows: (dose: 75.0 mg/kg/injection, schedule: Q04DX004 (sc), vehicle: saline) 59 % of control; (dose: 150.0 mg/kg/injection, schedule: Q04DX004 (sc), vehicle: saline) 67 % of control; (dose: 300.0 mg/kg/injection, schedule: Q04DX004 (sc), vehicle: saline) 63 % of control; (dose: 600.0 mg/kg/injection, schedule: Q04DX004 (sc), vehicle: saline) 62 % of control.
On to `CN(C)c1ccc(C(=C2C=CC(=[N+](C)C)C=C2)c2ccc(N(C)C)cc2)cc1` (tested in a mixture with another compound), for which the T/C is 86 % of control (dose: 1.25 mg/kg/injection, schedule: Q01DX010 (sc), vehicle: saline with Tween-80); 111 % of control (dose: 2.5 mg/kg/injection, schedule: Q01DX010 (sc), vehicle: saline with Tween-80); 100 % of control (dose: 5.0 mg/kg/injection, schedule: Q01DX010 (sc), vehicle: saline with Tween-80); 60 % of control (dose: 10.0 mg/kg/injection, schedule: Q01DX010 (sc), vehicle: saline with Tween-80).
